The subject of data set [1] is Mycobacterium intracellulare. As to the kind of experiment: Antibacterial activity against Mycobacterium intracellular. Type of data set: functional.
A further data set concerns Cryptococcus neoformans. The experiment in a line: Antifungal activity against Cryptococcus neoformans. Type of data set: functional, organism-based.
In data set [2] the test system is Plasmodium falciparum. The experiment in a line: Antimalarial activity against Plasmodium falciparum D6. Type of data set: functional, organism-based.
In data set [3] the test system is Plasmodium falciparum. As to the kind of experiment: Antimalarial activity against Plasmodium falciparum W2. Format: functional, organism-based.
In a further data set the test system is Vero. As to the kind of experiment: Cytotoxicity against african green monkey Vero cells. Format: cell-based. The conditions noted are these: chlorocebus sabaeus.
The next data set has as its system Candida albicans. As to the kind of experiment: Antifungal activity against Candida albicans. Type of data set: functional, organism-based.

SMILES strings stand for the structures. In brackets after ≈: the same amount, converted by molar mass. Activity calls are given as the source filed them. The calls are words filed in the database; no cut-off is given here.

For the compound `O=CN(CCc1cnc[nH]1)c1cc[nH]c1` [SOLSODOMINE A], the lowest concentration to inhibit growth in data set [1] (MIC) was 10 µg/mL (≈ 49 µM). Besides, the outcome in the data set with Cryptococcus neoformans, in the data set with Plasmodium falciparum [2], with Plasmodium falciparum [3] and in the data set on Candida albicans was inactive. The Activity result in the data set on Vero was “Not Active”.
Turning to `CNCCCN(C=O)c1cc[nH]c1` [SOLSODOMINE B], the outcome in the data set with Cryptococcus neoformans, in the data set on Plasmodium falciparum [2], with Plasmodium falciparum [3] and in the data set on Candida albicans was inactive. For the same compound, in the data set on Vero, the Activity entry is listed as “Not Active”.

In general, MIC refers to the lowest concentration found to suppress growth.

The values are drawn from ChEMBL document CHEMBL1150914, “New pyrrole alkaloids from Solanum sodomaeum” (J Nat Prod, 1998).
